Measurements reported in the supplement of paper PMC7244745.
± gives the uncertainty stated by the source.

Key:
[1] = system: Klebsiella pneumoniae ATCC 13882; experiment: onset of ureolytic pH increase; higher = more delayed ureolysis (inhibition)
Method in brief: (§1)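 Every 15 min for 24 h, A557 and OD630 were recorded from sealed 96-well plates holding Klebsiella pneumoniae ATCC 13882 (resuspended from overnight M9U culture; final OD600 0.05 in 200 µl) with buffered 40 mM urea, phenol red and inhibitor at three stock dilutions, without preincubation, in triplicate. Growth is taken as final optical density; ureolysis as the final difference of the two absorbances, the time the phenol red signal starts to rise, and a rate fitted with the Gompertz equation, reported as mean±SD.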

[2] = system: Klebsiella pneumoniae ATCC 13882; experiment: final OD630 (growth) after 24 h; higher = more bacterial growth; extreme values may be limits of the assay
Method in brief: as §1

[3] = system: Klebsiella pneumoniae ATCC 13882; experiment: rate of pH (A557-A630) increase, Gompertz fit (10^-4 s-1); higher = faster ureolysis; extreme values may be limits of the assay
Method in brief: as §1

[4] = system: Klebsiella pneumoniae ATCC 13882; experiment: final pH-related absorbance (A557-A630) after 24 h (absorbance units); higher = more ureolysis; extreme values may be limits of the assay
Method in brief: as §1

| Structure (SMILES) | onset of ureolytic pH increase ([1]; 0.1 mM) [h] | onset of ureolytic pH increase ([1]; 1 mM) [h] | onset of ureolytic pH increase ([1]; 10 mM) [h] | final OD630 ([2]; 0.1 mM) | final OD630 ([2]; 1 mM) | final OD630 ([2]; 10 mM) | rate of pH ([3]; 0.1 mM) | rate of pH ([3]; 1 mM) | rate of pH ([3]; 10 mM) | final pH-related absorbance ([4]; 0.1 mM) | final pH-related absorbance ([4]; 1 mM) | final pH-related absorbance ([4]; 10 mM) | onset of ureolytic pH increase ([1]; 0.007 mM) [h] | onset of ureolytic pH increase ([1]; 0.07 mM) [h] | onset of ureolytic pH increase ([1]; 0.7 mM) [h] | final OD630 ([2]; 0.007 mM) | final OD630 ([2]; 0.07 mM) | final OD630 ([2]; 0.7 mM) | rate of pH ([3]; 0.007 mM) | rate of pH ([3]; 0.07 mM) | rate of pH ([3]; 0.7 mM) | final pH-related absorbance ([4]; 0.007 mM) | final pH-related absorbance ([4]; 0.07 mM) | final pH-related absorbance ([4]; 0.7 mM) | onset of ureolytic pH increase ([1]; 0.017 mM) [h] | onset of ureolytic pH increase ([1]; 0.167 mM) [h] | final OD630 ([2]; 0.017 mM) | final OD630 ([2]; 0.167 mM) | rate of pH ([3]; 0.017 mM) | rate of pH ([3]; 0.167 mM) | final pH-related absorbance ([4]; 0.017 mM) | final pH-related absorbance ([4]; 0.167 mM) |
| --- | --- | --- | --- | --- | --- | --- | --- | --- | --- | --- | --- | --- | --- | --- | --- | --- | --- | --- | --- | --- | --- | --- | --- | --- | --- | --- | --- | --- | --- | --- | --- | --- |
| O=C(O)C(=O)O [Oxalic acid] | 11.3 ± 0.015 | 11.29 ± 0.0183 | > 15 | 0.435 ± 0.0093 | 0.441 ± 0.0005 | 0.089 ± 0.0056 | 1.52 ± 0.024 | 1.62 ± 0.013 | 0 | 0.334 ± 0.008 | 0.291 ± 0.0011 | 0 |  |  |  |  |  |  |  |  |  |  |  |  |  |  |  |  |  |  |  |  |
| NP(N)(=O)Oc1ccccc1 [Phenyl phosphorodiamidate] |  |  |  |  |  |  |  |  |  |  |  |  | > 15 | > 15 | > 15 | 0.421 ± 0.0059 | 0.4185 ± 0.004 | 0.384 ± 0.01 | 0 | 0 | 0 | 0 | 0 | 0 |  |  |  |  |  |  |  |  |
| O=S(O)S(=O)(=O)O [Potassium disulfite] | 7.117 ± 0.025 | 8.65 ± 0.2 | > 15 | 0.462 ± 0.012 | 0.531 ± 0.001 | 0.024 ± 0.002 | 1.766 ± 0.005 | 0.8111 ± 0.002 | 0 | 0.358 ± 0.002 | 0.356 ± 0.014 | 0 |  |  |  |  |  |  |  |  |  |  |  |  |  |  |  |  |  |  |  |  |
| [K+].[O]=[Mn](=[O])(=[O])[O-] [Potassium permanganate] | 11.35 ± 0.107 | > 25 |  | 0.444 ± 0.0025 | 0 |  | 1.65 ± 0.032 | 0 |  | 0.062 ± 0.0044 | 0 |  |  |  |  |  |  |  |  |  |  |  |  |  |  |  |  |  |  |  |  |  |
| Oc1ccccc1O [Pyrocatechol] | 11.07 ± 0.07 | 14.6 ± 0.35 |  | 0.425 ± 0.0055 | 0.462 ± 0.0061 | 0 | 1.789 ± 0.015 | 1.74 ± 0.016 |  | 0.397 ± 0.0008 | 0.369 ± 0.011 |  |  |  |  |  |  |  |  |  |  |  |  |  |  |  |  |  |  |  |  |  |
| [F-].[Na+] [Sodium flouride] | 12.22 ± 0.0567 | > 25 | > 25 | 0.408 ± 0.0001 | 0.368 ± 0.0081 | 0.335 ± 0.0025 | 1.35 ± 0.025 | 0 | 0 | 0.178 ± 0.0021 | 0 | 0 |  |  |  |  |  |  |  |  |  |  |  |  |  |  |  |  |  |  |  |  |
| O=S([O-])[O-].[Na+].[Na+] [Sodium sulfite] | 7 ± 0.217 | 7.4 ± 0.4 | 9.88 ± 0.125 | 0.477 ± 0.013 | 0.504 ± 0.027 | 0.416 ± 0.004 | 2.1 ± 0.24 | 1.883 ± 0.013 | 0.984 ± 0.011 | 0.461 ± 0.054 | 0.373 ± 0.006 | 0.273 ± 0.011 |  |  |  |  |  |  |  |  |  |  |  |  |  |  |  |  |  |  |  |  |
| O=S(=O)(O)SSS(=O)(=O)O [Sodium tetrathionate dihydrate] | 7.21 ± 0.35 | 7.23 ± 0.367 | 7.17 ± 0.383 | 0.532 ± 0.027 | 0.541 ± 0.021 | 0.554 ± 0.021 | 3.64 ± 1.1 | 3.32 ± 1.5 | 3.97 ± 1.7 | 0.569 ± 0.076 | 0.492 ± 0.1 | 0.5 ± 0.12 |  |  |  |  |  |  |  |  |  |  |  |  |  |  |  |  |  |  |  |  |
| N#C[S-].[Na+] [Sodium thiocyanate] | 11.25 ± 0.065 | 11.7 ± 0.167 | 12.8 ± 0.317 | 0.431 ± 0.003 | 0.445 ± 0.0004 | 0.403 ± 0.003 | 1.61 ± 0.036 | 1.6 ± 0.048 | 0.0522 ± 0.0032 | 0.152 ± 0.002 | 0.144 ± 0.0019 | 0.123 ± 0.0011 |  |  |  |  |  |  |  |  |  |  |  |  |  |  |  |  |  |  |  |  |
| O=S(O)(O)=S [Sodium thiosulfate] | 9.5 ± 0.112 | 9.93 ± 0.0833 | 10.2 ± 0.13 | 0.476 ± 0.0014 | 0.457 ± 0.0043 | 0.454 ± 0.011 | 2.09 ± 0.021 | 2.11 ± 0.025 | 2.2095 ± 0.0016 | 0.154 ± 0.0011 | 0.14 ± 0.0017 | 0.142 ± 0.011 |  |  |  |  |  |  |  |  |  |  |  |  |  |  |  |  |  |  |  |  |
| NS(=O)(=O)O [Sulfamic acid] | 9.36 ± 0.2 | 8.91 ± 0.118 | > 15 | 0.506 ± 0.0081 | 0.515 ± 0.014 | 0 | 2.17 ± 0.036 | 1.96 ± 0.055 | 0 | 0.166 ± 0.019 | 0.182 ± 0.011 | 0 |  |  |  |  |  |  |  |  |  |  |  |  |  |  |  |  |  |  |  |  |
| O=C(OC[C@H]1O[C@@H](OC(=O)c2cc(O)c(O)c(OC(=O)c3cc(O)c(O)c(O)c3)c2)[C@H](OC(=O)c2cc(O)c(O)c(OC(=O)c3cc(O)c(O)c(O)c3)c2)[C@@H](OC(=O)c2cc(O)c(O)c(OC(=O)c3cc(O)c(O)c(O)c3)c2)[C@@H]1OC(=O)c1cc(O)c(O)c(OC(=O)c2cc(O)c(O)c(O)c2)c1)c1cc(O)c(O)c(OC(=O)c2cc(O)c(O)c(O)c2)c1 [Tannic acid] | 10.1 ± 0.517 | 10.69 ± 0.085 | > 25 | 0.452 ± 0.0032 | 0.433 ± 0.0003 | 0 | 1.47 ± 0.091 | 1.282 ± 0.0068 | 0 | 0.129 ± 0.0091 | 0.125 ± 0.0013 | 0 |  |  |  |  |  |  |  |  |  |  |  |  |  |  |  |  |  |  |  |  |
| NC(N)=S [Thiourea] | 6.84 ± 0.3 | 7.06 ± 0.2 | 7.59 ± 0.217 | 0.48 ± 0.0071 | 0.492 ± 0.012 | 0.483 ± 0.008 | 2.27 ± 0.21 | 2.13 ± 0.083 | 1.94 ± 0.099 | 0.271 ± 0.024 | 0.25 ± 0.0002 | 0.236 ± 0.014 |  |  |  |  |  |  |  |  |  |  |  |  |  |  |  |  |  |  |  |  |
| O=C1C=CC(=O)C=C1 [p-benzoquinone] |  |  |  |  |  |  |  |  |  |  |  |  |  |  |  |  |  |  |  |  |  |  |  |  | 11.35 ± 0.0333 | > 25 | 0.421 ± 0.011 | 0 | 1.59 ± 0.027 | 0 | 0.171 ± 0.0039 | 0 |
| Oc1ccc(Cl)cc1 [p-chlorophenol] | 12.21 ± 0.0417 | 15.6 ± 0.233 | > 15 | 0.42 ± 0.0062 | 0.401 ± 0.0036 | 0 | 1.5 ± 0.019 | 0.0559 ± 0.0036 | 0 | 0.162 ± 0.0043 | 0.09 ± 0.0059 | 0 |  |  |  |  |  |  |  |  |  |  |  |  |  |  |  |  |  |  |  |  |
